The text below walks through data of patent US20250268873A1, “COMBINATION OF DUAL ATM AND DNA-PK INHIBITORS AND IMMUNOTHERAPEUTIC AGENTS FOR USE IN CANCER THERAPY” (XRAD THERAPEUTICS, INC., priority 2021, published 2025).

The target of the test is ATM (Homo sapiens (Human), UniProt Q13315). The test can be described thus: Pharmacodynamic assay, pKAP1/KAP1 in FADU tumors. To be noted: for pKAP1/KAP1: FADU tumors. In kind it is in vivo. The protocol:
FADU or MDA-MB-231 cells were harvested during log phase growth for in vivo implantation. The resuspended cells were washed three times in phosphate buffered saline (PBS) before preparing the working dilution in PBS. FADU cells were diluted to 1×10^7 cells/mL and MDA-MB-231 cells were diluted to 5×10^7 cells/mL. Each mouse was injected subcutaneously in the right flank with 100 μL of the cellular suspension. Tumor growth was monitored until the tumors reached a target volume of at least 100 mm^3, at which point mice were randomly stratified into four treatment groups.
Tumor studies were performed as follows. Mice bearing FADU or MDA-231 tumors were pre-dosed with vehicle alone or compound 569 alone at 3, 6, and 10 mg/kg. Tumors were then irradiated with 10 Gy 45 min after vehicle or compound 569 administration or left unirradiated (vehicle and compound 569 at 10 mg/kg). Tumors were harvested 1 h post radiation.
Tissue homogenates for pharmacodynamic analyses were collected and processed as follows. Tumor tissues from FADU or MDA-MB-231 tumors were flash frozen in liquid nitrogen and pulverized on dry ice using a tissue pulverizer. A portion of the tumor powder was transferred into a microtube, followed by addition of 500 μL of RIPA buffer [[…], pH 8.0, 150 mM NaCl, 0.1% SDS, 0.5% sodium deoxycholate, 1% IGEPAL® CA-630 (Sigma, I8896)]. To 10 ml of RIPA buffer, 2 tablets each of Protease inhibitor and Phosphatase inhibitor (Roche, #04693159001 & #04906837001), 200 μL of 0.1 M PMSF and 160 μL of Aprotinin, (Sigma, A6279) were added. The suspension was homogenized on ice with a pellet pestle motor (KONTES) and incubated on ice for 30 minutes. Cell lysates were centrifuged at 13,200 rpm for 15 min at 4° C. and supernatants were transferred to a new tube and analyzed for protein concentration with a BCA kit (Pierce, 23227), followed by immunoblotting.

Sequence of ATM (Q13315 whole entry): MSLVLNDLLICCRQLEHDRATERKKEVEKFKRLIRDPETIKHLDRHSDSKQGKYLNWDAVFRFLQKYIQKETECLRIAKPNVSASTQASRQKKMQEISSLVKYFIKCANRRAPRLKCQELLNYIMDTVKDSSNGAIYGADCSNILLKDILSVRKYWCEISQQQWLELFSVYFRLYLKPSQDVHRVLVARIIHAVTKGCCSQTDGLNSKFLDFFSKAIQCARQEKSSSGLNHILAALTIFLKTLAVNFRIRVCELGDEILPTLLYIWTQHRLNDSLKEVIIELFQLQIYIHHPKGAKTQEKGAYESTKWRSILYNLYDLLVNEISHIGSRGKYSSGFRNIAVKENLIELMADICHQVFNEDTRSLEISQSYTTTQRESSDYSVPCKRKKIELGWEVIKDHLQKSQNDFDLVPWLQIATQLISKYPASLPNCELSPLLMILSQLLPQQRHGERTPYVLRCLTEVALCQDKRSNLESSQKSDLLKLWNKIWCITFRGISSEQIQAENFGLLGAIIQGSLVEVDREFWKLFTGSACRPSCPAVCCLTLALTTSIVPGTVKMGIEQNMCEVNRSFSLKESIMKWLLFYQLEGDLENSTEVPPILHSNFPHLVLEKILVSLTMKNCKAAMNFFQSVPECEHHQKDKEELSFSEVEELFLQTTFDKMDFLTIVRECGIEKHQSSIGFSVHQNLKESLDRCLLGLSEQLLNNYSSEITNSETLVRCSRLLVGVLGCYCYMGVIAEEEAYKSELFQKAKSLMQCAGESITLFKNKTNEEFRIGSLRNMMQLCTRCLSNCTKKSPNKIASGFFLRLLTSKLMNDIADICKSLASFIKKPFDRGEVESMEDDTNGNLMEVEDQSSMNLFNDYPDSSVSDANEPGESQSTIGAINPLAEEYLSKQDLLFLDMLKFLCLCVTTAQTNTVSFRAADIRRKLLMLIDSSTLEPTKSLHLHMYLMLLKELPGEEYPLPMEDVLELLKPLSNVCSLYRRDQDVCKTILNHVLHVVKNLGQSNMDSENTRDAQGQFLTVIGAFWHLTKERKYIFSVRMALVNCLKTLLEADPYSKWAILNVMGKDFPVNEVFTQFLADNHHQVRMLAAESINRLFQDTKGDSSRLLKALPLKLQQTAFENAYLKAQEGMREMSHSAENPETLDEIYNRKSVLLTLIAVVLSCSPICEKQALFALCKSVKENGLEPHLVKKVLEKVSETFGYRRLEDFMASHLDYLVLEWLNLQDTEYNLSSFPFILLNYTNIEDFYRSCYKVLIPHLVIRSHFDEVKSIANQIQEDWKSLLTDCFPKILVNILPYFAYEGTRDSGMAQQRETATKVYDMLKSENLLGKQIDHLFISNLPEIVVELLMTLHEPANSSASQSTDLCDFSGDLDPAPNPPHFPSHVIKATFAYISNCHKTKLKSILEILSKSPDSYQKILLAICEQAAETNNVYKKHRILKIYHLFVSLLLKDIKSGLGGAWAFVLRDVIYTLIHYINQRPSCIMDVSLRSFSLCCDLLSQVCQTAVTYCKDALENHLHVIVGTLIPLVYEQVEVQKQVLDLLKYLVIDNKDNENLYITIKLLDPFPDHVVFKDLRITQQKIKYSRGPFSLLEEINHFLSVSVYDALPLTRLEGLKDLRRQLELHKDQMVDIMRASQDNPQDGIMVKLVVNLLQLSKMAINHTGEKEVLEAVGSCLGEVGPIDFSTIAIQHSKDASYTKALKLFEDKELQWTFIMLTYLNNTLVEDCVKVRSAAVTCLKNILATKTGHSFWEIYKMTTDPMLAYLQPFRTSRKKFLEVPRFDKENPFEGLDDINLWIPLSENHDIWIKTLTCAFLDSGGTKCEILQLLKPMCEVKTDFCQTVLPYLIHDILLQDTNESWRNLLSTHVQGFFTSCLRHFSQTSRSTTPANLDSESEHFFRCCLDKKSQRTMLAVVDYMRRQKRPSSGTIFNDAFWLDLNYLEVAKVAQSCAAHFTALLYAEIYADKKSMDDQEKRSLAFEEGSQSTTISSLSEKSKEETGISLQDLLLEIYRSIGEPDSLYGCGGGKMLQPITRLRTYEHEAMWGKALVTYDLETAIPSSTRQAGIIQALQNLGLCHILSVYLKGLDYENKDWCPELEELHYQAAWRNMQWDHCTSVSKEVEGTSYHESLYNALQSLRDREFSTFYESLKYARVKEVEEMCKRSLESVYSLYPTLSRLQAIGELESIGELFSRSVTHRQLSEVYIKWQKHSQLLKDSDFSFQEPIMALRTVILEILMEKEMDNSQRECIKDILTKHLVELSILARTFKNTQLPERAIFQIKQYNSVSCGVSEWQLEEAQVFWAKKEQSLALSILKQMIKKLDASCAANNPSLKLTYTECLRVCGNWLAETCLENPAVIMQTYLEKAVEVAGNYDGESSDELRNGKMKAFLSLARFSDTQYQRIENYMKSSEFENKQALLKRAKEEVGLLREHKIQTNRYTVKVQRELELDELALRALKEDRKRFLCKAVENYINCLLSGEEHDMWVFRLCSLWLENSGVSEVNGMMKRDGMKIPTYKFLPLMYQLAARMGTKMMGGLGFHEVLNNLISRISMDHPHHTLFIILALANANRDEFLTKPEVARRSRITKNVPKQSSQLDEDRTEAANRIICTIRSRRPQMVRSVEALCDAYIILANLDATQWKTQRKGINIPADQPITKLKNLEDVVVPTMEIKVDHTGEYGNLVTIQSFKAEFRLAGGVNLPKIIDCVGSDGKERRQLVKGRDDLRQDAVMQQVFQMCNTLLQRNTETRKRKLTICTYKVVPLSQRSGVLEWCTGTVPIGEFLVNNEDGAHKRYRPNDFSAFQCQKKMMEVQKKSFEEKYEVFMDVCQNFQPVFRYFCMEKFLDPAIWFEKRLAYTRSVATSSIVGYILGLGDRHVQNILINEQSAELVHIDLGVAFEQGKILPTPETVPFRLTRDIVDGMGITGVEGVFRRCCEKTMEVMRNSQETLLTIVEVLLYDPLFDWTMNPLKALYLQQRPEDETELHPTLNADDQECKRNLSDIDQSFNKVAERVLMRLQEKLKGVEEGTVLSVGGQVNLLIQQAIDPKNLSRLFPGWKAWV

Regarding `CC(C)NCCOc1ncc(-c2cc3c4c(cnc3cc2F)N(C)C(=O)C42CCC2)cc1NS(C)(=O)=O` [Compound 569, N-(5-(7′-Fluoro-3′-methyl-2′-oxo-2′,3′-dihydrospiro[cyclobutane-1,1′-pyrrolo[2,3-c]quinolin]-8′-yl)-2-(2-(isopropylamino)ethoxy)pyridin-3-yl)methanesulfonamide], the inhibition at 10 mg/kg (10 mg/kg, 10 Gy, FADU and MDA231 tumors (FIGS. 4 and 5), read-out: inhibition of tumor levels of radiation-induced phosphorylation of KAP1) is > 80%. The pKAP1/KAP1 stood at 0.0903 (10 Gy, 3 mg/kg oral); 0.0982 (10 Gy, 6 mg/kg oral); 0.156 (10 Gy, 10 mg/kg oral); 0.00595 (no radiation, 10 mg/kg oral).

By inhibition is commonly meant the percentage by which the read-out fell short of the control.
